Laboratory results from the supplement of paper PMC10307832.

Experiments:
Assay in all cases: relative viability (nuclei count vs DMSO), 5 days (fraction); higher = more cells survive
COR-L23 = tested on: COR-L23
Procedure, shortened: (§1)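 Each reported value is a median over duplicate plates. It expresses relative viability: treated-well nuclei count divided by vehicle-well nuclei count. Lung cancer cell lines in 1536-well plates were dosed by pin tool a day after seeding, alone with one drug or with a fixed anchor-drug dose plus five library-drug doses (not always all listed) in √10 steps, and nuclei were counted after 5 days.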

NCI-H1299 = tested on: NCI-H1299
Procedure, shortened: as §1

SK-MES-1 = tested on: SK-MES-1
Procedure, shortened: as §1

NCI-H1651 = tested on: NCI-H1651
Procedure, shortened: as §1

Calu-6 = tested on: Calu-6
Procedure, shortened: as §1

EBC-1 = tested on: EBC-1
Procedure, shortened: as §1

ABC-1 = tested on: ABC-1
Procedure, shortened: as §1

NCI-H1703 = tested on: NCI-H1703
Procedure, shortened: as §1

ChaGo-K-1 = tested on: ChaGo-K-1
Procedure, shortened: as §1

A549 = tested on: A549
Procedure, shortened: as §1

NCI-H1648 = tested on: NCI-H1648
Procedure, shortened: as §1

NCI-H1437 = tested on: NCI-H1437
Procedure, shortened: as §1

IA-LM = tested on: IA-LM
Procedure, shortened: as §1

SW 1573 = tested on: SW 1573
Procedure, shortened: as §1

Question: Which results are given for CC(=O)O[C@@]12CO[C@@H]1C[C@H](O)[C@@]1(C)C(=O)[C@H](O)C3=C(C)[C@@H](OC(=O)[C@H](O)[C@@H](NC(=O)OC(C)(C)C)c4ccccc4)C[C@@](O)([C@@H](OC(=O)c4ccccc4)[C@H]21)C3(C)C [Docetaxel] + O=C(c1cc(Cc2n[nH]c(=O)c3ccccc23)ccc1F)N1CCN(C(=O)C2CC2)CC1 [Olaparib] (partner 8 µM)?
Answer: relative viability (COR-L23; first compound 0.0002 µM): 0.307; relative viability (COR-L23; first compound 0.000632 µM): 0.312; relative viability (COR-L23; first compound 0.002 µM): 0.161; relative viability (COR-L23; first compound 0.006325 µM): 0.134; relative viability (COR-L23; first compound 0.02 µM): 0.0881; relative viability (NCI-H1299; first compound 0.0002 µM): 0.95; relative viability (NCI-H1299; first compound 0.000632 µM): 0.9; relative viability (NCI-H1299; first compound 0.002 µM): 0.628; relative viability (NCI-H1299; first compound 0.006325 µM): 0.351; relative viability (NCI-H1299; first compound 0.02 µM): 0.241; relative viability (SK-MES-1; first compound 0.0002 µM): 0.719; relative viability (SK-MES-1; first compound 0.000632 µM): 0.405; relative viability (SK-MES-1; first compound 0.002 µM): 0.354; relative viability (SK-MES-1; first compound 0.02 µM): 0.145; relative viability (NCI-H1651; first compound 0.0002 µM): 0.188; relative viability (NCI-H1651; first compound 0.000632 µM): 0.206; relative viability (NCI-H1651; first compound 0.002 µM): 0.177; relative viability (NCI-H1651; first compound 0.006325 µM): 0.137; relative viability (Calu-6; first compound 0.0002 µM): 0.604; relative viability (Calu-6; first compound 0.000632 µM): 0.454; relative viability (Calu-6; first compound 0.002 µM): 0.243; relative viability (Calu-6; first compound 0.006325 µM): 0.128; relative viability (Calu-6; first compound 0.02 µM): 0.0895; relative viability (EBC-1; first compound 0.0002 µM): 0.579; relative viability (EBC-1; first compound 0.000632 µM): 0.358; relative viability (EBC-1; first compound 0.002 µM): 0.213; relative viability (EBC-1; first compound 0.006325 µM): 0.217; relative viability (EBC-1; first compound 0.02 µM): 0.162; relative viability (ABC-1; first compound 0.0002 µM): 0.649; relative viability (ABC-1; first compound 0.000632 µM): 0.827; relative viability (ABC-1; first compound 0.002 µM): 0.564; relative viability (ABC-1; first compound 0.006325 µM): 0.535; relative viability (ABC-1; first compound 0.02 µM): 0.338; relative viability (NCI-H1703; first compound 0.0002 µM): 0.372; relative viability (NCI-H1703; first compound 0.000632 µM): 0.538; relative viability (NCI-H1703; first compound 0.002 µM): 0.204; relative viability (NCI-H1703; first compound 0.006325 µM): 0.174; relative viability (NCI-H1703; first compound 0.02 µM): 0.0787; relative viability (ChaGo-K-1; first compound 0.0002 µM): 0.384; relative viability (ChaGo-K-1; first compound 0.000632 µM): 0.335; relative viability (ChaGo-K-1; first compound 0.002 µM): 0.285; relative viability (ChaGo-K-1; first compound 0.006325 µM): 0.3; relative viability (ChaGo-K-1; first compound 0.02 µM): 0.181; relative viability (A549; first compound 0.0002 µM): 0.341; relative viability (A549; first compound 0.000632 µM): 0.0796; relative viability (A549; first compound 0.002 µM): 0.0511; relative viability (A549; first compound 0.006325 µM): 0.0681; relative viability (A549; first compound 0.02 µM): 0.0279; relative viability (NCI-H1648; first compound 0.0002 µM): 0.773; relative viability (NCI-H1648; first compound 0.000632 µM): 0.563; relative viability (NCI-H1648; first compound 0.002 µM): 0.338; relative viability (NCI-H1648; first compound 0.006325 µM): 0.279; relative viability (NCI-H1648; first compound 0.02 µM): 0.21; relative viability (NCI-H1437; first compound 0.0002 µM): 0.613; relative viability (NCI-H1437; first compound 0.000632 µM): 0.442; relative viability (NCI-H1437; first compound 0.002 µM): 0.384; relative viability (NCI-H1437; first compound 0.006325 µM): 0.269; relative viability (NCI-H1437; first compound 0.02 µM): 0.177; relative viability (IA-LM; first compound 0.0002 µM): 0.687; relative viability (IA-LM; first compound 0.000632 µM): 0.326; relative viability (IA-LM; first compound 0.002 µM): 0.153; relative viability (IA-LM; first compound 0.006325 µM): 0.0861; relative viability (IA-LM; first compound 0.02 µM): 0.074; relative viability (SW 1573; first compound 0.0002 µM): 0.304; relative viability (SW 1573; first compound 0.000632 µM): 0.223; relative viability (SW 1573; first compound 0.002 µM): 0.199; relative viability (SW 1573; first compound 0.006325 µM): 0.162; relative viability (SW 1573; first compound 0.02 µM): 0.119

Question: Which results are given for COc1cc2nccc(Oc3ccc(NC(=O)Nc4cc(C)on4)c(Cl)c3)c2cc1OC [Tivozanib] + O=C(c1cc(Cc2n[nH]c(=O)c3ccccc23)ccc1F)N1CCN(C(=O)C2CC2)CC1 [Olaparib] (partner 8 µM)?
Answer: relative viability (COR-L23; first compound 0.005 µM): 0.324; relative viability (COR-L23; first compound 0.01581 µM): 0.326; relative viability (COR-L23; first compound 0.05 µM): 0.376; relative viability (COR-L23; first compound 0.1581 µM): 0.363; relative viability (COR-L23; first compound 0.5 µM): 0.298; relative viability (NCI-H1299; first compound 0.005 µM): 0.969; relative viability (NCI-H1299; first compound 0.01581 µM): 1.01; relative viability (NCI-H1299; first compound 0.05 µM): 0.962; relative viability (NCI-H1299; first compound 0.1581 µM): 0.965; relative viability (NCI-H1299; first compound 0.5 µM): 0.844; relative viability (SK-MES-1; first compound 0.005 µM): 0.661; relative viability (SK-MES-1; first compound 0.01581 µM): 0.623; relative viability (SK-MES-1; first compound 0.05 µM): 0.772; relative viability (SK-MES-1; first compound 0.1581 µM): 0.62; relative viability (SK-MES-1; first compound 0.5 µM): 0.583; relative viability (NCI-H1651; first compound 0.005 µM): 0.187; relative viability (NCI-H1651; first compound 0.01581 µM): 0.188; relative viability (NCI-H1651; first compound 0.05 µM): 0.198; relative viability (NCI-H1651; first compound 0.1581 µM): 0.203; relative viability (NCI-H1651; first compound 0.5 µM): 0.158; relative viability (Calu-6; first compound 0.005 µM): 0.581; relative viability (Calu-6; first compound 0.01581 µM): 0.618; relative viability (Calu-6; first compound 0.05 µM): 0.522; relative viability (Calu-6; first compound 0.1581 µM): 0.671; relative viability (Calu-6; first compound 0.5 µM): 0.519; relative viability (EBC-1; first compound 0.005 µM): 0.642; relative viability (EBC-1; first compound 0.01581 µM): 0.704; relative viability (EBC-1; first compound 0.05 µM): 0.708; relative viability (EBC-1; first compound 0.1581 µM): 0.777; relative viability (EBC-1; first compound 0.5 µM): 0.736; relative viability (ABC-1; first compound 0.005 µM): 0.815; relative viability (ABC-1; first compound 0.01581 µM): 0.837; relative viability (ABC-1; first compound 0.05 µM): 0.579; relative viability (ABC-1; first compound 0.1581 µM): 1.02; relative viability (ABC-1; first compound 0.5 µM): 0.67; relative viability (NCI-H1703; first compound 0.005 µM): 0.216; relative viability (NCI-H1703; first compound 0.01581 µM): 0.256; relative viability (NCI-H1703; first compound 0.05 µM): 0.241; relative viability (NCI-H1703; first compound 0.1581 µM): 0.177; relative viability (NCI-H1703; first compound 0.5 µM): 0.146; relative viability (ChaGo-K-1; first compound 0.005 µM): 0.386; relative viability (ChaGo-K-1; first compound 0.01581 µM): 0.381; relative viability (ChaGo-K-1; first compound 0.05 µM): 0.409; relative viability (ChaGo-K-1; first compound 0.1581 µM): 0.412; relative viability (ChaGo-K-1; first compound 0.5 µM): 0.37; relative viability (A549; first compound 0.005 µM): 0.349; relative viability (A549; first compound 0.01581 µM): 0.456; relative viability (A549; first compound 0.05 µM): 0.398; relative viability (A549; first compound 0.1581 µM): 0.0913; relative viability (A549; first compound 0.5 µM): 0.246; relative viability (NCI-H1648; first compound 0.005 µM): 1; relative viability (NCI-H1648; first compound 0.01581 µM): 0.736; relative viability (NCI-H1648; first compound 0.05 µM): 0.799; relative viability (NCI-H1648; first compound 0.1581 µM): 1.25; relative viability (NCI-H1648; first compound 0.5 µM): 0.713; relative viability (NCI-H1437; first compound 0.005 µM): 0.613; relative viability (NCI-H1437; first compound 0.01581 µM): 0.628; relative viability (NCI-H1437; first compound 0.05 µM): 0.658; relative viability (NCI-H1437; first compound 0.1581 µM): 0.613; relative viability (NCI-H1437; first compound 0.5 µM): 0.584; relative viability (IA-LM; first compound 0.005 µM): 0.867; relative viability (IA-LM; first compound 0.01581 µM): 0.891; relative viability (IA-LM; first compound 0.05 µM): 0.857; relative viability (IA-LM; first compound 0.1581 µM): 0.697; relative viability (IA-LM; first compound 0.5 µM): 0.672; relative viability (SW 1573; first compound 0.005 µM): 0.443; relative viability (SW 1573; first compound 0.01581 µM): 0.416; relative viability (SW 1573; first compound 0.05 µM): 0.434; relative viability (SW 1573; first compound 0.1581 µM): 0.506; relative viability (SW 1573; first compound 0.5 µM): 0.446
